≈ marks a conversion by molar mass, not a printed value. Read-outs that look alike come from different tables or passages of the source.
How the values were obtained:
[1] = cited from earlier work
healthy subjects = assay: Adverse events in the comparative bioavailability clinical trial; conditions: single dose
Description: The study was open, longitudinal, prospective, with a 3×6×3 design, with random assignment, single dose, three treatments, three periods and six sequences under fasting conditions, in a healthy Mexican female and male population with a washout time for drug elimination of one week (07 days) between each period.
Due to the COVID-19 health emergency, the 42 research subjects were divided into two hospitalization groups: Group 1 with 22 research subjects and Group 2 with 20 research subjects. After fasting for at least 10 hours, a blood sample was taken at time 0.00 hours, and a dose of celecoxib/pregabalin/vitamin B, 200 mg/150 mg tablets/vitamin B12 500 μg/vitamin B1 100 mg/vitamin B6 50 mg was administered, in a single dose of the test medicament or the reference medicament as monotherapy (celecoxib 200 mg capsule or pregabalin 150 mg capsule) according to prior randomization, orally with 250 ml of water at room temperature. After administration of the corresponding medicament, another 17 samples were taken at the following times: 0.50, 0.75, 1.00, 1.33, 1.66, 2.00, 2.50, 3.00, 3.50, 4.00, 6.00, 8.00, 10.00, 14.00, 24.00, 36.00- and 48.00-hours post-dose.

[2] = cited from earlier work; remark: listed apart in the source

## CC(C)C[C@H](CN)CC(=O)O [Pregabalin]
[1]; not told
  Permeability (biopharmaceutical classification): high permeability
Healthy subjects
  Adverse events probably related to dosing, total: 16 events
  Events of dizziness: 13 events
  Events of headache: 1 events
  Events of paresthesia: 1 events
  Events of visual disturbances: 1 events

## Cc1ncc(C[n+]2csc(CCO)c2C)c(N)n1 [Thiamine]
[1]
  pKa: 15.5
[1]; in words
  Solubility in chloroform: very slightly soluble
  Solubility in diethyl ether: almost insoluble
  Solubility in ethanol: slightly soluble
  Solubility in hot water: Freely soluble
  Solubility in methanol: slightly soluble
  Solubility in water: slightly soluble

## Cc1ncc(CO)c(CO)c1O [Pyridoxine]
[1]; air, light
  Stability (description): stable in air and slowly decomposes with light
[1]
  pKa: 9.4
[1]; in words
  Solubility in alcohol: slightly soluble
  Solubility in diethyl ether: almost insoluble
  Solubility in water: Easily soluble

## Cc1ccc(-c2cc(C(F)(F)F)nn2-c2ccc(S(N)(=O)=O)cc2)cc1 [Celecoxib]
[1]
  Solubility: 3300 µg/mL (≈ 8.65 mM)
  Solubility (biopharmaceutical classification): low solubility
[2]; Author: Center for Drug Evaluation, 1999
  Cmax of celecoxib: 600.0 ± 900.00 ng/mL
[2]; Author: Laboratorios Silanes
  ABC0-t of celecoxib: 5593.760 ± 2158.606 ng/mL*h
  Cmax of celecoxib: 602.685 ± 301.48 ng/mL
[2]; Author: Lilitkarntrakul, P
  ABC0-t of celecoxib: 5157.12 ± 1499.46 ng/mL*h
  Cmax of celecoxib: 686.83 ± 211.35 ng/mL
[2]; Author: Paulson, S
  ABC0-t of celecoxib: 5994.0 ± 2393.0 ng/mL*h
  Cmax of celecoxib: 806.0 ± 411.0 ng/mL
[2]; Author: Sy-Yeuan J
  ABC0-t of celecoxib: 7267.48 ± 2077.68 ng/mL*h
  Cmax of celecoxib: 703.86 ± 329.91 ng/mL

## Cyanocobalamin
[1]; 1 g/L at 20° C.
  pH: 6.0
[1]
  Solubility: 12000 µg/mL
  pKa: 1.82
[1]; in words
  Solubility in acetone: almost insoluble
  Solubility in alcohol: Soluble
  Solubility in chloroform: almost insoluble
  Solubility in diethyl ether: almost insoluble
  Solubility in water: slightly soluble
